{
  "source": "patent US12433877B2",
  "about": "“Sustained release drug delivery systems and related methods” (Durect Corporation, priority 2021, dated 2025)",
  "key": {"[1]": {"assay": "Example 18: plasma pharmacokinetics by cohort", "assay_type": "in vivo, human", "conditions": "Cohort 2; total bupivacaine in plasma", "procedure": "Plasma PK samples were analyzed for determination of total bupivacaine concentration only and none of the samples were analyzed for determination of free drug concentration."}, "[2]": {"test_system": "rats", "assay": "Rat pre- and post-natal development study", "assay_type": "in vivo", "conditions": "40 mg/kg subcutaneous, implantation through weaning", "procedure": "There are no studies conducted with Formulation A in pregnant women. […] Based on animal data, advise pregnant women of the potential risks to a fetus. [see Data]\nThe high dose is approximately 0.6 times the daily MRHD of 660 mg/day on a BSA basis."}, "[3]": {"test_system": "patients undergoing total abdominal hysterectomy", "assay": "Adverse reactions, total abdominal hysterectomy study", "assay_type": "in vivo, human", "conditions": "Formulation A N = 60; Bupivacaine HCl N = 27", "procedure": "In a study of patients undergoing total abdominal hysterectomy, Formulation A, vehicle placebo, or bupivacaine HCl was administered into the surgical incision at the end of surgery."}, "[4]": {"test_system": "patients undergoing a variety of general surgical procedures", "assay": "Example 18: safety, Holter monitoring", "assay_type": "in vivo, human", "description": "Patient safety was carefully monitored throughout the trial with traditional assessments of AEs, vital signs, routine laboratory testing, and Holter monitoring (i.e., continuous recording of electrocardiogram) for 3 days after dosing. Special attention was given to cardiovascular and neurological AE, as bupivacaine toxic effects are manifest in those two body systems. In addition, special assessments were done to monitor surgical wound condition and healing over the 30 days of the trial. There were no consistent treatment-related effects on vital signs. Changes in serum chemistry and hematological parameters were those expected after major surgery, with few consistent differences between treatment groups. Cardiac safety was carefully studied using Holter monitoring for 72 hours post-dose, starting about one hour before surgery. In addition, baseline 24-hour ambulatory Holter monitoring was done after the screening visit."}, "[5]": {"assay": "clinical", "conditions": "human, in vivo; for half-life: t1/2 (min, max)", "procedure": "Additionally, alpha 1 acid glycoprotein (AAG) plasma concentrations were measured in these two groups for correlation with free bupivacaine concentrations.\nUsing non-compartmental methods the following PK parameters were calculated from the plasma concentrations of each compound: area under the plasma concentration vs. time curve until the last measured concentration (AUCt), area under the plasma concentration vs. time curve extrapolated until infinity (AUCinf), the maximum concentration (Cmax), the time of its occurrence (tmax) and the apparent terminal elimination half-life (t1/2). […] The average […] of bupivacaine was approximately 5.2%; free bupivacaine plasma concentrations generally paralleled those of total bupivacaine. There was a large interindividual variability of Cmax of both total and free bupivacaine. […] Note: Table 1.5 presents Geometric mean, ±68th percentile for Cmax rather than absolute min,max."}, "[6]": {"test_system": "pregnant rats", "conditions": "rat, in vivo", "procedure": "Bupivacaine hydrochloride was administered subcutaneously to rats at doses of 4.4, 13.3, & 40 mg/kg and to rabbits at doses of 1.3, 5.8, & 22.2 mg/kg during the period of organogenesis (implantation to closure of the hard palate). The high doses are approximately 0.6 times the daily maximum recommended human dose (MRHD) of 660 mg/day on a mg/m^2 body surface area (BSA) basis."}},
  "note": "Counter-ions that a name gives are not always drawn.",
  "data": [
    {"smiles": "CCCCN1CCCCC1C(=O)Nc1c(C)cccc1C", "note": "(centres unmarked) [Bupivacaine HCl]", "values": [
      {"measurement": "Tmax Median", "setting": "[1]", "value": 1, "unit": "h"},
      {"measurement": "Pup survival at the high dose", "setting": "[2]", "value": "decreased pup survival was observed"},
      {"measurement": "Anemia, (%)", "setting": "[3]", "value": "(11.1%)"},
      {"measurement": "C-reactive protein increased, (%)", "setting": "[3]", "value": "(3.7%)"},
      {"measurement": "Dizziness, (%)", "setting": "[3]", "value": "(14.8%)"},
      {"measurement": "Hypertension, (%)", "setting": "[3]", "value": "(7.4%)"},
      {"measurement": "Pyrexia, (%)", "setting": "[3]", "value": "(25.9%)"},
      {"measurement": "Somnolence, (%)", "setting": "[3]", "value": "(7.4%)"},
      {"measurement": "Vomiting, (%)", "setting": "[3]", "value": "(14.8%)"},
      {"measurement": "At Least One Cardiovascular TEAE", "setting": "[4]; Cohort 1, % of subjects", "value": "(39%)"},
      {"measurement": "At Least One Neurological TEAE", "setting": "[4]; Cohort 1, % of subjects", "value": "(22%)"},
      {"measurement": "At Least One Non-Opioid TEAE", "setting": "[4]; Cohort 1, % of subjects", "value": "(94%)"},
      {"measurement": "At Least One Serious TEAE", "setting": "[4]; Cohort 1, % of subjects", "value": "(22%)"},
      {"measurement": "At Least One TEAE", "setting": "[4]; Cohort 1, % of subjects", "value": "(94%)"},
      {"measurement": "At Least One Wound Infection TEAE", "setting": "[4]; Cohort 1, % of subjects", "value": "(11%)"},
      {"measurement": "Maximum Relationship to Study Drug: Not Related", "setting": "[4]; Cohort 1, % of subjects", "value": "(72%)"},
      {"measurement": "Maximum Relationship to Study Drug: Related", "setting": "[4]; Cohort 1, % of subjects", "value": "(22%)"},
      {"measurement": "Maximum Severity: Mild", "setting": "[4]; Cohort 1, % of subjects", "value": "(11%)"},
      {"measurement": "Maximum Severity: Moderate", "setting": "[4]; Cohort 1, % of subjects", "value": "(61%)"},
      {"measurement": "Maximum Severity: Severe", "setting": "[4]; Cohort 1, % of subjects", "value": "(22%)"},
      {"measurement": "At Least One Cardiovascular TEAE", "setting": "[4]; Cohort 1, number of subjects", "value": 7},
      {"measurement": "At Least One Neurological TEAE", "setting": "[4]; Cohort 1, number of subjects", "value": 4},
      {"measurement": "At Least One Non-Opioid TEAE", "setting": "[4]; Cohort 1, number of subjects", "value": 17},
      {"measurement": "At Least One Serious TEAE", "setting": "[4]; Cohort 1, number of subjects", "value": 4},
      {"measurement": "At Least One Serious and Related TEAE", "setting": "[4]; Cohort 1, number of subjects", "value": 0},
      {"measurement": "At Least One Severe and Related TEAE", "setting": "[4]; Cohort 1, number of subjects", "value": 0},
      {"measurement": "At Least One TEAE", "setting": "[4]; Cohort 1, number of subjects", "value": 17},
      {"measurement": "At Least One TEAE Leading to Study Discontinuation", "setting": "[4]; Cohort 1, number of subjects", "value": 0},
      {"measurement": "At Least One Wound Infection TEAE", "setting": "[4]; Cohort 1, number of subjects", "value": 2},
      {"measurement": "Deaths", "setting": "[4]; Cohort 1, number of subjects", "value": 0},
      {"measurement": "Maximum Relationship to Study Drug: Not Related", "setting": "[4]; Cohort 1, number of subjects", "value": 13},
      {"measurement": "Maximum Relationship to Study Drug: Related", "setting": "[4]; Cohort 1, number of subjects", "value": 4},
      {"measurement": "Maximum Severity: Mild", "setting": "[4]; Cohort 1, number of subjects", "value": 2},
      {"measurement": "Maximum Severity: Moderate", "setting": "[4]; Cohort 1, number of subjects", "value": 11},
      {"measurement": "Maximum Severity: Severe", "setting": "[4]; Cohort 1, number of subjects", "value": 4},
      {"measurement": "At Least One Cardiovascular TEAE", "setting": "[4]; Cohort 2, % of subjects", "value": "(10%)"},
      {"measurement": "At Least One Neurological TEAE", "setting": "[4]; Cohort 2, % of subjects", "value": "(50%)"},
      {"measurement": "At Least One Non-Opioid TEAE", "setting": "[4]; Cohort 2, % of subjects", "value": "(95%)"},
      {"measurement": "At Least One Serious TEAE", "setting": "[4]; Cohort 2, % of subjects", "value": "(5%)"},
      {"measurement": "At Least One Severe and Related TEAE", "setting": "[4]; Cohort 2, % of subjects", "value": "(5%)"},
      {"measurement": "At Least One TEAE", "setting": "[4]; Cohort 2, % of subjects", "value": "(100%)"},
      {"measurement": "At Least One TEAE Leading to Study Discontinuation", "setting": "[4]; Cohort 2, % of subjects", "value": "(5%)"},
      {"measurement": "At Least One Wound Infection TEAE", "setting": "[4]; Cohort 2, % of subjects", "value": "(5%)"},
      {"measurement": "Maximum Relationship to Study Drug: Not Related", "setting": "[4]; Cohort 2, % of subjects", "value": "(50%)"},
      {"measurement": "Maximum Relationship to Study Drug: Related", "setting": "[4]; Cohort 2, % of subjects", "value": "(50%)"},
      {"measurement": "Maximum Severity: Mild", "setting": "[4]; Cohort 2, % of subjects", "value": "(10%)"},
      {"measurement": "Maximum Severity: Moderate", "setting": "[4]; Cohort 2, % of subjects", "value": "(65%)"},
      {"measurement": "Maximum Severity: Severe", "setting": "[4]; Cohort 2, % of subjects", "value": "(25%)"},
      {"measurement": "At Least One Cardiovascular TEAE", "setting": "[4]; Cohort 2, number of subjects", "value": 2},
      {"measurement": "At Least One Neurological TEAE", "setting": "[4]; Cohort 2, number of subjects", "value": 10},
      {"measurement": "At Least One Non-Opioid TEAE", "setting": "[4]; Cohort 2, number of subjects", "value": 19},
      {"measurement": "At Least One Serious TEAE", "setting": "[4]; Cohort 2, number of subjects", "value": 1},
      {"measurement": "At Least One Serious and Related TEAE", "setting": "[4]; Cohort 2, number of subjects", "value": 0},
      {"measurement": "At Least One Severe and Related TEAE", "setting": "[4]; Cohort 2, number of subjects", "value": 1},
      {"measurement": "At Least One TEAE", "setting": "[4]; Cohort 2, number of subjects", "value": 20},
      {"measurement": "At Least One TEAE Leading to Study Discontinuation", "setting": "[4]; Cohort 2, number of subjects", "value": 1},
      {"measurement": "At Least One Wound Infection TEAE", "setting": "[4]; Cohort 2, number of subjects", "value": 1},
      {"measurement": "Deaths", "setting": "[4]; Cohort 2, number of subjects", "value": 0},
      {"measurement": "Maximum Relationship to Study Drug: Not Related", "setting": "[4]; Cohort 2, number of subjects", "value": 10},
      {"measurement": "Maximum Relationship to Study Drug: Related", "setting": "[4]; Cohort 2, number of subjects", "value": 10},
      {"measurement": "Maximum Severity: Mild", "setting": "[4]; Cohort 2, number of subjects", "value": 2},
      {"measurement": "Maximum Severity: Moderate", "setting": "[4]; Cohort 2, number of subjects", "value": 13},
      {"measurement": "Maximum Severity: Severe", "setting": "[4]; Cohort 2, number of subjects", "value": 5},
      {"measurement": "AUC(0-inf)", "setting": "[5]", "value": "30 to 2210", "unit": "ng·h/mL"},
      {"measurement": "AUC(0-t)", "setting": "[5]", "value": "249 to 1900", "unit": "ng·h/mL"},
      {"measurement": "AUCinf (min, max), free bupivacaine", "setting": "[5]", "value": "(0.7, 134) h · ng/mL"},
      {"measurement": "AUCinf, free bupivacaine", "setting": "[5]", "value": 48, "unit": "ng·h/mL"},
      {"measurement": "AUCt (min, max), free bupivacaine", "setting": "[5]", "value": "(0.010, 0.102) mg · h · L^−1"},
      {"measurement": "AUCt, free bupivacaine", "setting": "[5]", "value": 33, "unit": "ng·h/mL"},
      {"measurement": "Cmax", "setting": "[5]", "value": "8 to 195", "unit": "ng/mL"},
      {"measurement": "Cmax, free bupivacaine", "setting": "[5]", "value": 5.0, "unit": "ng/mL"},
      {"measurement": "Cmax, total bupivacaine", "setting": "[5]", "value": 90, "unit": "ng/mL"},
      {"measurement": "Tmax", "setting": "[5]", "value": "0.92 to 12", "unit": "h"},
      {"measurement": "tmax (min, max), free bupivacaine", "setting": "[5]", "value": "(0.92, 12.0) h"},
      {"measurement": "half-life", "setting": "[5]; free bupivacaine", "value": "2.9 to 15.2", "unit": "h"},
      {"measurement": "half-life", "setting": "[5]; total bupivacaine", "value": "2.6 to 9.6", "unit": "h"},
      {"measurement": "Embryo-fetal effects at the high dose", "setting": "[6]", "value": "No embryo-fetal effects were observed"}
    ]}
  ]
}
